Target: T1, recombinant guanylate cyclase reporter cell line (Rattus norvegicus, UniProt P19686+P20595)
T1 construct: expressed in transfected cells; host or cells: recombinant reporter cell line
T1 sequence (P19686 1-690): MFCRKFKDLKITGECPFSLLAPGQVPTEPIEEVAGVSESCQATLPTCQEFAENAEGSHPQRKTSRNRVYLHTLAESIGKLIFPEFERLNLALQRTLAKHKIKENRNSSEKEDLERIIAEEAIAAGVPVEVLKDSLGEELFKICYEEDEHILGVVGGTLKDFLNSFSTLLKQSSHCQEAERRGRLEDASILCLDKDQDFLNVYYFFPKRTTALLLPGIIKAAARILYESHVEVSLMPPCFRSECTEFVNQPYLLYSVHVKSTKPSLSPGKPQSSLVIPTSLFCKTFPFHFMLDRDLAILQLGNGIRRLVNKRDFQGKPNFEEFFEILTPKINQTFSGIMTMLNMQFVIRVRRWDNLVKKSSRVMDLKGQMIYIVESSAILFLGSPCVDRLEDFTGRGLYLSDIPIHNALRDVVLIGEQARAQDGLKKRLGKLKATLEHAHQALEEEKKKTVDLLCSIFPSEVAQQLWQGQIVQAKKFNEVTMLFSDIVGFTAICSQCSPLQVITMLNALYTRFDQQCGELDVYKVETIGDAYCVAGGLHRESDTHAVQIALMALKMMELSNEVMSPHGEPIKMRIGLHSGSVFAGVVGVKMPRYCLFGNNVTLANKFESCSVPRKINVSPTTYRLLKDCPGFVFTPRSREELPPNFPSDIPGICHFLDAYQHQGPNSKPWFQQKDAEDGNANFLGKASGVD
T1 sequence (P20595 1-619): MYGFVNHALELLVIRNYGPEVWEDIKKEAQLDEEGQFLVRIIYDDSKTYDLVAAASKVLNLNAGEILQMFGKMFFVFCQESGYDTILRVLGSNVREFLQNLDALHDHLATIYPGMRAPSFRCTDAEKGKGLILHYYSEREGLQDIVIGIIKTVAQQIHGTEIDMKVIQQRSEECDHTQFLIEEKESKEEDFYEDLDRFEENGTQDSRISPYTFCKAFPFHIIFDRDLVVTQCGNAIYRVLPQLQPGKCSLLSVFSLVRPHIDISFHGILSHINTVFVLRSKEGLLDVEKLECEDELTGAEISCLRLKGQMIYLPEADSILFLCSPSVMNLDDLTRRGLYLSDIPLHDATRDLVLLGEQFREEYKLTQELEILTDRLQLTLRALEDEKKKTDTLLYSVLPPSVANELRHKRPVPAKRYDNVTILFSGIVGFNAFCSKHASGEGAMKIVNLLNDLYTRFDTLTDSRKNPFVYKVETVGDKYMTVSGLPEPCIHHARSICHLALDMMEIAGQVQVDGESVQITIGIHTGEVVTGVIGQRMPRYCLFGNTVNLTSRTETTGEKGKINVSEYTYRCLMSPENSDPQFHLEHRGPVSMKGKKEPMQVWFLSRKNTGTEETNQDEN
Test: Action on recombinant guanylate cyclase reporter cell line
Assay type: cell-based
Conditions: in some cases mean values from individual determinations
Outline: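 Reported value is the minimal effective concentration (MEC), in some cases a mean of single runs, taken from a recombinant rat guanylate cyclase reporter cell line.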

SMILES | MEC (minimal effective concentration) [µM]
Cc1nc2c(OCc3c(F)cccc3F)cccn2c1C(=O)NCC(C)(N)CC(C)C (single isomer, unassigned) [Example 204, ent-N-(2-Amino-2,4-dimethylpentyl)-8-[(2,6-difluorobenzyl)oxy]-2-methylimidazo[1,2-a]pyridine-3-carboxamide] | 1.00
CCCC(C)(N)CNC(=O)c1c(C(F)(F)F)nc2c(OCc3c(F)cccc3F)cc(C)cn12 (stereo not drawn) [Example 305, ent-N-(2-amino-2-methylpentyl)-8-[(2,6-difluorobenzyl)oxy]-6-methyl-2-(trifluoromethyl)imidazo[1,2-a]pyridine-3-carboxamide] | 0.10
COCC(C)(N)CNC(=O)c1c(C)nc2c(OCc3c(F)cccc3F)cccn12 (single isomer, unassigned) [Example 214, ent-N-(2-Amino-3-methoxy-2-methylpropyl)-8-[(2,6-difluorobenzyl)oxy]-2-methylimidazo[1,2-a]-pyridine-3-carboxamide] | 0.30
Cc1cc(OCc2c(F)cccc2F)c2nc(C)c(C(=O)NCC(N)c3cccc(C(F)(F)F)c3)n2c1 (racemic) [Example 376, rac-N-{2-amino-2-[3-(trifluoromethyl)phenyl]ethyl}-8-[(2,6-difluorobenzyl)oxy]-2,6-dimethylimidazo[1,2-a]pyridine-3-carboxamide] | 3.00
Cc1nc2c(OCc3c(F)cccc3F)cccn2c1C(=O)NCC1CCc2ccccc2N1 (racemic) [Example 250, rac-8-[(2,6-Difluorobenzyl)oxy]-2-methyl-N-(1,2,3,4-tetrahydroquinolin-2-ylmethyl)imidazo[1,2-a]pyridine-3-carboxamide] | 1.00
Cc1cc(OCCC(C)C)c2nc(C)c(C(=O)NCC(C)(N)CC(C)C)n2c1 (racemic) [Example 249, rac-N-(2-Amino-2,4-dimethylpentyl)-2,6-dimethyl-8-(3-methylbutoxyl)imidazo[1,2-a]pyridine-3-carboxamide] | 1.00
CCC(C)(N)CNC(=O)c1c(C)nc2c(OCc3c(F)cccc3F)cc(Cl)cn12 (single isomer, unassigned) [Example 195, ent-N-(2-Amino-2-methylbutyl)-6-chloro-8-[(2,6-difluorobenzyl)oxy]-2-methylimidazo[1,2-a]-pyridine-3-carboxamide] | 0.30
Cc1cc(OCc2c(F)cccc2F)c2nc(C)c(C(=O)NCC(C)(N)CC(C)C)n2c1 (single isomer, unassigned) [Example 219, ent-N-(2-Amino-2,4-dimethylpentyl)-8-[(2,6-difluorobenzyl)oxy]-2,6-dimethylimidazo[1,2-a]-pyridine-3-carboxamide] | 0.30
Cc1cc(OCc2c(F)cccc2F)c2nc(C)c(C(=O)NCC(C)(C)NCC(F)(F)F)n2c1 [Example 94, 8-[(2,6-Difluorobenzyl)oxy]-2,6-dimethyl-N-{2-methyl-2-[(2,2,2-trifluoroethyl)amino]propyl}-imidazo[1,2-a]pyridine-3-carboxamide] | 0.30
Cc1cc(OCc2c(F)cccc2F)c2nc(C)c(C(=O)NC34CCC3CNC4)n2c1 (racemic) [Example 346, rac-N-(3-azabicyclo[3.2.0]hept-1-yl)-8-[(2,6-difluorobenzyl)oxy]-2,6-dimethylimidazo[1,2-a]pyridine-3-carboxamide] | 1.00
Cc1nc2c(OCc3c(F)cccc3F)cccn2c1C(=O)N[C@@H](C)CN1CCOCC1 [Example 171, 8-[(2,6-difluorobenzyl)oxy]-2-methyl-N-[(2S)-1-(morpholin-4-yl)propan-2-yl]imidazo[1,2-a]-pyridine-3-carboxamide] | 1.00
Cc1nc2c(OCc3c(F)cccc3F)cccn2c1C(=O)NCCC(C)(C)N [Example 117, N-(3-amino-3-methylbutyl)-8-[(2,6-difluorobenzyl)oxy]-2-methylimidazo[1,2-a]-pyridine-3-carboxamide] | 1.00
Cc1cc(OCc2c(F)cccc2F)c2nc(C)c(C(=O)NCC(C)(N)CC(C)C)n2c1 (racemic) [Example 218, rac-N-(2-Amino-2,4-dimethylpentyl)-8-[(2,6-difluorobenzyl)oxy]-2,6-dimethylimidazo[1,2-a]-pyridine-3-carboxamide] | 0.10
Cc1nc2c(OCc3c(F)cccc3F)cccn2c1C(=O)NC(CN)COc1ccc(F)c(F)c1 (stereo not drawn) [Example 124, ent-N-[1-Amino-3-(3,4-difluorophenoxyl)propan-2-yl]-8-[(2,6-difluorobenzyl)oxy]-2-methyl-imidazo[1,2-a]pyridine-3-carboxamide ditrifluoroacetate] | 1.00
Cc1cc(OCc2c(F)cccc2F)c2nc(C)c(C(=O)NCC3(N)CCC3)n2c1 [Example 165, N-[(1-aminocyclobutyl)methyl]-8-[(2,6-difluorobenzyl)oxy]-2,6-dimethylimidazo[1,2-a]-pyridine-3-carboxamide] | 0.10
Cc1nc2c(OCc3c(F)cccc3F)cccn2c1C(=O)NC(CN)CC(C(F)(F)F)C(F)(F)F (single isomer, unassigned; enantiomer a) [Example 7, ent-N-[1-Amino-5,5,5-trifluoro-4-(trifluoromethyl)pentan-2-yl]-8-[(2,6-difluorobenzyl)oxy]-2-methylimidazo[1,2-a]pyridine-3-carboxamide (Enantiomer A)] | 1.00
COCCNCCNC(=O)c1c(C)nc2c(OCc3c(F)cccc3F)cc(Cl)cn12 [Example 153, 6-chloro-8-[(2,6-difluorobenzyl)oxy]-N-{2-[(2-methoxyethyl)amino]ethyl}-2-methylimidazo[1,2-a]pyridine-3-carboxamide] | 1.00
Cc1cc(OCc2c(F)ccc(C3CC3)c2F)c2nc(C)c(C(=O)NCC(C)(N)CF)n2c1 (centres unmarked) [Example 362, N-(2-amino-3-fluoro-2-methylpropyl)-8-[(3-cyclopropyl-2,6-difluorobenzyl)oxy]-2,6-dimethylimidazo[1,2-a]pyridine-3-carboxamide] | 1.00
CCC(C)(N)CNC(=O)c1c(C)nc2c(OCc3c(F)cccc3F)cc(C)cn12.Cl (single isomer, unassigned; enantiomer a) [Example 357, ent-N-(2-amino-2-methylbutyl)-8-[(2,6-difluorobenzyl)oxy]-2,6-dimethylimidazo[1,2-a]pyridine-3-carboxamide hydrochloride (Enantiomer A)] | 0.03
Cc1nc2c(OCc3c(F)cccc3F)cccn2c1C(=O)NC1CCNc2ccccc21 (single isomer, unassigned; ent-8) [Example 52, ent-8-[(2,6-Difluorobenzyl)oxy]-2-methyl-N-(1,2,3,4-tetrahydroquinolin-4-yl)imidazo[1,2-a]-pyridine-3-carboxamide] | 0.03
Cc1cc(OCc2c(F)cccc2F)c2nc(C)c(C(=O)NCCN3CCN(C)CC3)n2c1 [Example 137, 8-[(2,6-difluorobenzyl)oxy]-2,6-dimethyl-N-[2-(4-methylpiperazin-1-yl)ethyl]imidazo[1,2-a]-pyridine-3-carboxamide] | 1.00
Cc1cc(OCc2c(F)cccc2F)c2nc(C)c(C(=O)NC(C)C3CCN(C)CC3)n2c1 (racemic) [Example 77, rac-8-[(2,6-difluorobenzyl)oxy]-2,6-dimethyl-N-[1-(1-methylpiperidin-4-yl)ethyl]imidazo[1,2-a]-pyridine-3-carboxamide] | 1.00
CCCC(C)(N)CNC(=O)c1c(C)nc2c(OCc3c(F)cccc3F)cc(N3CCOCC3)cn12 (single isomer, unassigned; enantiomer b) [Example 280, ent-N-(2-amino-2-methylpentyl)-8-[(2,6-difluorobenzyl)oxy]-2-methyl-6-(morpholin-4-yl)imidazo[1,2-a]pyridine-3-carboxamide (Enantiomer B)] | 0.65

Reference: patent US20150274719A1, “AMINO-SUBSTITUTED IMIDAZO[1,2-A]PYRIDINECARBOXAMIDES AND THEIR USE” (BAYER PHARMA AKTIENGESELLSCHAFT, priority 2012, published 2015)
